Reference: ChEMBL document CHEMBL5729193, “Aromatic vinyl or aromatic ethyl derivative, preparation method therefor, intermediate, pharmaceutical composition, and application” (2022)

target: Programmed cell death protein 1/Programmed cell death 1 ligand 1 (Homo sapiens, UniProt Q15116+Q9NZQ7); test: Homogenouse Time-Resolved Fluorescence (HTRF) Binding Assay: Experimental Procedure1. The compound was formulated to 10 concentrations with a three-fold concentration gradient with 100% DMSO.2. The solution of the compound in DMSO was added to Dilute Buffer, and mixed evenly and then transferred to a 96-well plate.3. PD-L1 was diluted with Dilute Buffer and added to the 96-well plate above.4. PD-1 was diluted with Dilute Buffer, then added to the 96-well plate above and incubated at room temperature for 30 minutes.5. One portion of anti-tag1-Eu and one portion of anti-tag2-XL665 were added to Detection Buffer, mixed evenly and transferred to the 96-well plate above.6. The mixed solution in the 96-well plate were incubated at room temperature for 1 to 24 hours.7. HTRF values were read by Envision.; type: protein-complex assay
Sequence (Q15116 whole entry): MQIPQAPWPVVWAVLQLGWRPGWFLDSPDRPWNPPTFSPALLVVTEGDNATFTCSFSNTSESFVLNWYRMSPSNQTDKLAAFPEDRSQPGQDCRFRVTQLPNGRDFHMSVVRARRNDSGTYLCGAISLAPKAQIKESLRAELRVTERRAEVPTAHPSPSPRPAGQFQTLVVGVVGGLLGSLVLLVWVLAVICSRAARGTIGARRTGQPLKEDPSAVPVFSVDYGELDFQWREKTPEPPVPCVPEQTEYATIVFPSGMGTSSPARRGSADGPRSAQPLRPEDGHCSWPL
Sequence (Q9NZQ7 whole entry): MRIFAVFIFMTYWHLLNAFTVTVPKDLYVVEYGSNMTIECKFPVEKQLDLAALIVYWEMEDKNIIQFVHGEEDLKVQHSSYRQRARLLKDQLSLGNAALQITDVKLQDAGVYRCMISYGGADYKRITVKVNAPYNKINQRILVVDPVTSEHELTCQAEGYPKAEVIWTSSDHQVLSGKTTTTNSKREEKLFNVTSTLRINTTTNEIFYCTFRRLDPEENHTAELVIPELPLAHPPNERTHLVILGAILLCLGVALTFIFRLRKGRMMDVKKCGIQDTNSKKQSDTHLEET

Going from Cc1c(/C=C/c2cc(CN[C@@](C)(CO)C(=O)O)ccc2C(F)(F)F)cccc1-c1cnccn1 to Cc1c(/C=C/c2cc(CN[C@@](C)(CO)C(=O)O)ccc2C(F)(F)F)cccc1-c1ccccn1, the IC50 rises from 540 nM to 2200 nM (4.1-fold). The first is the more potent here.

Going from Cc1c(/C=C/c2cc(CN[C@@](C)(CO)C(=O)O)ccc2C(F)(F)F)cccc1-c1cccnc1 to Cc1c(/C=C/c2cc(CNC(C)(CO)C(=O)O)ccc2C(F)(F)F)cccc1-c1cccc(F)c1 (configuration not stated), the IC50 falls from 580 nM to 46 nM (13-fold). The second is the more potent here.

Cc1c(/C=C/c2cc(CNC(CO)C(=O)O)ccc2C(F)(F)F)cccc1-c1ccc2c(c1)OCCO2 (configuration not stated) and Cc1c(/C=C/c2cc(CNC(CO)C(=O)O)ccc2C(F)(F)F)cccc1-c1ccccc1F (configuration not stated) are within 1.5-fold of each other in IC50: 14 nM for the first, 13 nM for the second.

First: Cc1ccc(CNC(C)(CO)C(=O)O)cc1/C=C/c1cccc(-c2ccc(F)cc2)c1C (configuration not stated)
Second: COc1ccc(-c2cccc(/C=C/c3cc(CNC(C)(CO)C(=O)O)ccc3C)c2C)cc1 (configuration not stated)
The IC50 of the first is 2.2-fold lower: 1400 nM for the first, 3100 nM for the second. The first is the more potent here.

Compared with Cc1ccc(CNC(C)(CO)C(=O)O)cc1/C=C/c1cccc(-c2cccc(F)c2)c1C (configuration not stated), Cc1c(/C=C/c2cc(CNC(C)(CO)C(=O)O)ccc2C(F)(F)F)cccc1-c1ccc(F)cc1 (configuration not stated) is 5.6-fold higher in IC50: 57 nM for the first, 320 nM for the second. The first is the more potent here.

Cc1c(/C=C/c2cc(CN[C@@](C)(CO)C(=O)O)ccc2C(F)(F)F)cccc1-c1ccc2cn(C)nc2c1 and Cc1c(/C=C/c2cc(CN[C@@](C)(CO)C(=O)O)ccc2C(F)(F)F)cccc1-c1ccc2ncoc2c1 are within 1.5-fold of each other in IC50: 880 nM for the first, 1100 nM for the second.

Cc1c(CCc2cc(CNC(C)C(=O)O)ccc2C(F)(F)F)cccc1-c1ccccc1 (configuration not stated) and Cc1c(CCc2cc(CNC(CO)C(=O)O)ccc2C(F)(F)F)cccc1-c1ccccc1 (configuration not stated) are within 1.5-fold of each other in IC50: 44 nM for the first, 46 nM for the second.

Compared with Cc1c(CCc2cc(CNC(C)(CO)C(=O)O)ccc2C(F)(F)F)cccc1-c1ccccc1 (configuration not stated), Cc1c(/C=C/c2cc(CNC(C)(CO)C(=O)O)ccc2C(F)(F)F)cccc1-c1ccccc1F (configuration not stated) is 4.2-fold lower in IC50: 85 nM for the first, 20 nM for the second. The second is the more potent here.

Work on Cc1c(/C=C/c2cc(C(C)NCC(=O)O)ccc2C(F)(F)F)cccc1-c1ccccc1 (configuration not stated) yielded an IC50 of 24 nM.
